Where “and” joins values, the source holds several entries; their conditions need not be identical. Equal entries are not always repeated. Entries after “also recorded” stand apart in the source; their conditions may differ. Structures can show the parent of a compound that is named as a salt.

For test [1], the target named is T1, Btk (Homo sapiens, UniProt Q06187). The test is described as follows: Competition assay: blocking of probe 14 labeling of Btk in cells. Format: cell-based. As to conditions: inhibitor 1 μM for 1 hour, then 0.5 μM probe 14 for 2 hours, OCI-Ly7 cells. On the procedure:
Competition assay. LY7 cells were preincubated with the compounds (1 μM) for 1 h before labeling with probe 14 under the proper time and concentration conditions. Then, the cells were lysed and analyzed as described above. Supplementary figure S1: competition experiment in OCI-Ly7 cells (a) and Jurkat cells (b). 1.5×10^6 cells were pre-incubated with compounds for 1h at 1μM before labeling with probe 14 for 2h at 0.5μM. Then, lysed, quantified and analyzed by SDS/PAGE and fluorescent gel scanning (fluorescence, CY2).
Target sequence in this assay (Q06187 whole entry): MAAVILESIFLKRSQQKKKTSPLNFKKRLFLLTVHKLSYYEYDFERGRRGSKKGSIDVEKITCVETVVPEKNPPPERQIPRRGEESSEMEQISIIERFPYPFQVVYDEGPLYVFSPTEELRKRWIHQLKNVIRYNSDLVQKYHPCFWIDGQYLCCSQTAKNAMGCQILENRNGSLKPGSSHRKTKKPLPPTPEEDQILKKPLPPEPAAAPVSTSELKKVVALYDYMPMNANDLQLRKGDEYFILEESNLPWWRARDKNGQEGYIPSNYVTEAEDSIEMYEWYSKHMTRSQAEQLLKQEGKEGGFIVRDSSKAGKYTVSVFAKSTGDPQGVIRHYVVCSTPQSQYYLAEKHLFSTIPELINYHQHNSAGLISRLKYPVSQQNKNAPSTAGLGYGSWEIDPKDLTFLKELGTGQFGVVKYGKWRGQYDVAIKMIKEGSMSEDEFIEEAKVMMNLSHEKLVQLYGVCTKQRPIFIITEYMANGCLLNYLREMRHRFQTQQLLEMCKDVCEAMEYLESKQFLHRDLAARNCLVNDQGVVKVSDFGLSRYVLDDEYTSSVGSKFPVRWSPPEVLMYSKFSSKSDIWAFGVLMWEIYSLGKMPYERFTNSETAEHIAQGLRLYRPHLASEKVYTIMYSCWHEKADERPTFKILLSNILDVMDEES

Test [2] deals with T1, Btk. The test is described as follows: Kinase enzymology assay (HTRF KinEase). It counts as biochemical. Also noted: purchased Carna Biosciences. As to conditions: enzymatic assay; values marked * are a single run of duplicates, all others are means of two individual measurements. On the procedure:
Kinases were purchased from Carna Biosciences. Kinase enzymology assays were performed according to the protocols specified for the HTRF® KinEase™ assays sold by Cisbio Bioassays.
Target sequence in this assay (Q06187 whole entry): as above

The target of test [3] is T1, Btk. The experiment in a line: Kinetic study of Btk inhibitors (kinact/Ki, HTRF KinEase). Also noted: purchased Carna Biosciences. Format: biochemical. As to conditions: 0.5 nM Btk, room temperature, preincubation 0-20 min. The protocol:
The kinase assays were performed at room temperature. The compounds with serial dilution in DMSO were added into reaction buffer with 0.5 nM Btk, incubating with different periods of time (0 min, 4 min, 8 min, 12 min, 16 min, and 20 min). Enzyme reaction was started by adding ATP and substrate to the reaction mixture. The enzyme activity was measured with HTRF® KinEase™ assays. The data analysis was guided by the book, Enzyme Kinetics by Hans Bisswanger[16].
Target sequence in this assay (Q06187 whole entry): as above

Test [4] concerns the target T1, Btk. The experiment in a line: Recombinant protein labeling assay. Format: binding. Particulars: recombinant Btk (0.5 μg). The source says: […] The gel was then blotted, and the total Btk levels were detected by standard […]. The concentration course labeling procedure was similar to that for the time course labeling.
Target sequence in this assay (Q06187 whole entry, species assumed): as the sequence (Q06187 whole entry) above
Test [5] concerns the target T1, Btk. The test is described as follows: Cellular labeling of Btk by probe 14 in OCI-Ly7 cells. Format: cell-based. The protocol: Labeling of Btk by probe 14. A total of 1.5 × 10^6 cells were treated with probe 14 at 1 μM for different lengths of times (5 min, 10 min, 20 min, 30 min, 1 h, 2 h, 3 h, or 4 h), washed, lysed in cell lysis buffer (Beyotime) containing 1 mM PMSF and 10 mM NaF (Invitrogen), and centrifuged. The sample protein concentrations were quantified using a NanoDrop 2000 spectrophotometer, and the samples were adjusted to the same concentration then analyzed by SDS/PAGE and fluorescent gel scanning (fluorescence, CY2). The gel was then blotted, and the total Btk levels were detected by a standard Western blot. The concentration course labeling procedure was similar to that for the time course labeling.
Target sequence in this assay (Q06187 whole entry): as above

Test [6] relates to Jurkat cells. The test is described as follows: Cellular labeling by probe 14 in Jurkat cells (T-cell line that does not express Btk). It counts as cell-based. As to conditions: T-cell line without Btk (Supplementary Figure S1). The protocol: Supplementary figure S1: competition experiment in OCI-Ly7 cells (a) and Jurkat cells (b). 1.5×10^6 cells were pre-incubated with compounds for 1h at 1μM before labeling with probe 14 for 2h at 0.5μM. Then, lysed, quantified and analyzed by SDS/PAGE and fluorescent gel scanning (fluorescence, CY2).

Regarding `C=CC(=O)Nc1cccc(Nc2ncc(NC(=O)c3cc(NC(=O)c4cccc(C(F)(F)F)c4)ccc3C)cn2)c1` [Compound 2], the “Blocking of the labeling of Btk by probe 14” value in test [1] is listed as “effectively blocked; also recorded: completely competed off”.

Consider `C=CC(=O)N[C@@H](CC(N)=O)C(=O)Nc1cccc(Nc2ncc(NC(=O)c3cc(NC(=O)c4cccc(C(F)(F)F)c4)ccc3C)cn2)c1` [Compound 9], for which the IC50 in test [2] is 15 to 20 nM and 19.8 nM.

For `C=CC(=O)N[C@@H](CCCCN)C(=O)Nc1cccc(Nc2ncc(NC(=O)c3cc(NC(=O)c4cccc(C(F)(F)F)c4)ccc3C)cn2)c1` [Compound 11, Trifluoroacetate of (S)-N-(2-((3-(2-acrylamido-6-aminohexanamido)phenyl)amino)pyramidin-5-yl)-2-methyl-5-(3-(trifluoromethyl)benzamido)benzamide], in test [2], the IC50 was 63 nM and 62.8 nM. For the same compound, in test [3], the kinact/KI was determined as 135000 ± 4e+08 M⁻¹ s⁻¹.

In test [2], `C=CC(=O)N[C@@H](Cc1cnc[nH]1)C(=O)Nc1cccc(Nc2ncc(NC(=O)c3cc(NC(=O)c4cccc(C(F)(F)F)c4)ccc3C)cn2)c1` [Compound 12] yielded an IC50 of 64.2 ± 4.95 nM.

Consider `C=CC(=O)NCC(=O)Nc1cccc(Nc2ncc(Nc3cc(NC(=O)c4cccc(C(F)(F)F)c4)ccc3C)cn2)c1` [Compound 1], for which half-maximal inhibition in test [2] (IC50) was put at 16.7 nM.

For the compound `C=CC(=O)N[C@@H](C)C(=O)Nc1cccc(Nc2ncc(NC(=O)c3cc(NC(=O)c4cccc(C(F)(F)F)c4)ccc3C)cn2)c1` [Compound 5], the IC50 in test [2] is 44 ± 8.13 nM.

In test [2], `C=CC(=O)N[C@@H](CO)C(=O)Nc1cccc(Nc2ncc(NC(=O)c3cc(NC(=O)c4cccc(C(F)(F)F)c4)ccc3C)cn2)c1` [Compound 8] gave an IC50 of 27.4 ± 2.6 nM.

In the case of `C=CC(=O)N[C@@H](CCC(=O)O)C(=O)Nc1cccc(Nc2ncc(NC(=O)c3cc(NC(=O)c4cccc(C(F)(F)F)c4)ccc3C)cn2)c1` [Compound 10], in test [2], the IC50 is 15 to 20 nM and 14.7 nM.

In the case of `C=CC(=O)N[C@@H](CC(C)C)C(=O)Nc1cccc(Nc2ncc(NC(=O)c3cc(NC(=O)c4cccc(C(F)(F)F)c4)ccc3C)cn2)c1` [Compound 6, (S)-N-(2-((3-(2-acrylamido-4-methylpentanamido)phenyl)amino)pyrimidin-5-yl)-2-methyl-5-(3-(trifluoromethyl)benzamido)benzamide], in test [2], the IC50 was > 100 nM and 114 nM.

`C=CC(=O)NCCC(=O)Nc1cccc(Nc2ncc(NC(=O)c3cc(NC(=O)c4cccc(C(F)(F)F)c4)ccc3C)cn2)c1` [Compound 3] registered an IC50 in test [2] of 26.7 ± 5.74 nM.

Compound `C=CC(=O)N1CCC[C@H]1C(=O)Nc1cccc(Nc2ncc(NC(=O)c3cc(NC(=O)c4cccc(C(F)(F)F)c4)ccc3C)cn2)c1` [Compound 4] registered an IC50 in test [2] of 52.9 ± 0.95 nM.

As for `C=CC(=O)N[C@@H](CCCCNC(=O)CCC1=[N+]2C(=Cc3c(C)cc(C)n3[B-]2(F)F)C=C1)C(=O)Nc1cccc(Nc2ncc(NC(=O)c3cc(NC(=O)c4cccc(C(F)(F)F)c4)ccc3C)cn2)c1` [Compound 14, (S)-3-(3-((5-acrylamido-6-((3-((5-(2-methyl-5-(3-(trifluoromethyl)benzamido)benzamido)pyrimidin-2-yl)amino)phenyl)amino)-6-oxohexyl)amino)-3-oxopropyl)-5,5-difluoro-7,9-dimethyl-5H-dipyrrolo[1,2-c:2',1'-f][1,3,2]diazaborinin-4-ium-5-uide], the “Incubation time at which fluorescent signals reached a maximum” value in test [4] turned out to be 2 h. In addition, the “Saturation rate of labeling compared with PCI-33380” value in test [5] (OCI-Ly7 cells (Supplementary Figure S2)) is reported as “slower saturation rate”. For the same compound, the “Probe concentration at which Btk band intensity reached saturation” value in test [5] (OCI-Ly7 cells, concentration course) came out at 0.5 µM. Moreover, the “Incubation time sufficient for labeling” value in test [5] (OCI-Ly7 cells, time course) came out at 2 h. Moreover, the “Labeling in Jurkat cells” value in test [6] is “no significant labeling”.

For the compound `C#CCCC(=O)NCCCC[C@H](NC(=O)C=C)C(=O)Nc1cccc(Nc2ncc(NC(=O)c3cc(NC(=O)c4cccc(C(F)(F)F)c4)ccc3C)cn2)c1` [Compound 13], the IC50 in test [2] is 38 nM and 37.5 nM. In addition, the inactivation efficiency (kinact/KI) in test [3] came to 75000 ± 8e+08 M⁻¹ s⁻¹.

For the compound `C=CC(=O)N[C@@H](Cc1ccccc1)C(=O)Nc1cccc(Nc2ncc(NC(=O)c3cc(NC(=O)c4cccc(C(F)(F)F)c4)ccc3C)cn2)c1` [Compound 7], the 50% inhibitory concentration (IC50) in test [2] was > 100 nM and 140 nM.
